Data published in US4212862A, “O,O-Diaryl-1-acyloxy-2,2,2-trichloroethylphosphonates and fungicides based thereon” (priority 1978, dated 1980).
“And” between values parts separate entries of the source, which are not always exact repeats. Equal values may be shown once. Read-outs that look alike come from different tables or passages of the source.

Key:
[1] = tested on: rust diseases of cereal crops; assay: Activity against rust diseases of cereal crops (general statements); type: in vivo
[2] = tested on: apple scab (Venturia inaequalis); conditions: in vivo
[3] = tested on: rust diseases of cereal crops; conditions: prior art; cited from earlier work
[4] = tested on: yellow rust (P. striiformis); assay: Efficiency of Aphos for USVS against yellow rust of wheat under field conditions (Table 8); type: in vivo; conditions: Taskent region, spring wheat Kzyl Shark, 3.0 kg/ha, 7.5 l/ha (Zineb 600), 3 sprayings
yellow rust of wheat = conditions: in vivo
[5] = tested on: stalk rust (Puccinia graminis f. tritici); type: in vivo; conditions: Table 8, 3.0 kg/ha, 3 sprayings
[6] = tested on: stalk rust (Puccinia graminis f. tritici); type: in vivo
[7] = prior art; cited from earlier work
[8] = tested on: stalk rust of wheat (Puccinia graminis); type: in vivo; conditions: in vivo
[9] = Acute peroral toxicity for warm-blooded animals (LD50, LD90); type: in vivo, white mice; conditions: mouse, in vivo, po
Description: (§1) Toxicity (LD50) was evaluated on males and females of white mice with peroral administration of the compounds. A portion of the test compound was mixed with the emulsifier Twin-20 and diluted with distilled water to the required working concentration. Administration of the preparation was effected by means of a metal probe and syringe directly into the stomach of test animals 2-3 hours after feeding. The tests were performed using several doses, 6 animals per each dose. Subsequent observation was effected for two weeks.

white mice = assay: as above; type: in vivo; conditions: peroral
Description: as §1

[10] = tested on: spores of Piricularia oryzae Cav.; type: cell-based; conditions: for Concentration causing 50% death of spores: 24 hours
[11] = tested on: stalk rust (Puccinia graminis f. tritici); type: in vivo; conditions: for Plant injury / Weight of 1,000 grains: Table 5, Moscow region, spring wheat Krasnozernaja, 3 sprayings
plants = conditions: prior art; cited from earlier work
[12] = tested on: potato phytophthora (Phytophthora infestans); type: in vivo; conditions: 1% aqueous emulsion; 18 °C, 14 days
[13] = Krasnodar region, winter wheat Odesskaja-51, 7.5 l/ha (Zineb 3.2 kg/ha, 600 l/ha)
[14] = Moscow region, spring wheat Krasnozernaja, 7.5 l/ha (Zineb 600)
[15] = Table 2, peroral, read-out: LD50 for white mice
[16] = seeds after storage of grains for one year

zinc ethylenebisdithiocarbamate [Zineb]
efficiency under different agroclimatic conditions including frequent heavy rains [1]: low-effective | reduced the degree of injury as compared to the control [2]: 97% | activity against rust diseases [3]: high activity | Grain yield [4]: 20.8 c/ha | Percentage of injured plants [4]: 14.4% | Weight of 1,000 grains [4]: 31.6 g | Percentage of injured plants, 17.05 (yellow rust of wheat): 4% and 6% and 5% | Weight of 1,000 grains (yellow rust of wheat): 35.4 g and 31.0 g and 34.8 g | Yield (yellow rust of wheat): 411 and 351 and 412 | efficiency with longer intervals between sprayings (yellow rust of wheat): substantially reduced to zero | Grain yield [5, 13]: 34.5 c/ha | Percentage of injured plants [5, 13]: 16.0% | Weight of 1,000 grains [5, 13]: 35.6 g | Grain yield [5, 14]: 8.0 c/ha | Percentage of injured plants [5, 14]: 23.3% | Weight of 1,000 grains [5, 14]: 12.6 g | Weight of 1,000 grains ([6]; 3 kg/ha a.i., three sprayings): 14.0 g | Yield ([6]; 3 kg/ha a.i., three sprayings): 8.55 c/ha | Percentage of plants injured with rust, 1-st evaluation ([6]; 3 kg/ha a.i., 9 days after the first spraying, Moscow region, spring wheat Krasnozernaja): 0.5% | Percentage of plants injured with rust, 2-nd evaluation ([6]; 3 kg/ha a.i., two weeks after the third spraying, Moscow region, spring wheat Krasnozernaja): 12.0% | stability upon storage [7]: not stable upon storage

CC(=O)OC(C(Cl)(Cl)Cl)P(=O)(Oc1ccccc1)Oc1ccccc1 (stereo not drawn) [I, O,O-diphenyl-1-acetoxy-2,2,2-trichloroethylphosphonate]
period of fungicidal effect as compared to zineb ([1]; compared to zineb): longer period of a fungicidal effect as compared to zineb | protection of cereal crops from rust ([1]; even at a high level of infection): substantially completely protect cereal crops from rust | increase of the grain yield ([1]; high-volume spraying and USVS at 5 to 8 l/ha): up to 24 c/ha | efficiency compared with prior art anti-rust compositions ([1]; including zineb and hydroxycarboxine): superior over the prior art anti-rust fungicidal compositions including zineb and hydroxycarboxine | protection of the apple tree from scab [2]: complete protection | Percentage of injury lowered [8]: 98-100% and 70-97% | LD50 at 336 h [9, 15]: 3500 mg/kg | LD50 at 336 h ([9]; Table 14, female mice, peroral, read-out: LD50 with trusty limits): 3500 mg/kg | LD50 at 336 h ([9]; white mice, peroral administration, read-out: acute toxicity): ~3500 mg/kg | LD90 with trusty limits (white mice; Table 14, female mice): 8,200 mg/kg | effect on yield of wheat grain (wheat plants; even at 8-times the increase of the dose): does not lower the yield of wheat grain | germination power (wheat plants; [16]): 99.5% | sprouting energy (wheat plants; [16]): 98.5% | efficiency of suppressing spores relative to kitacin [10]: about 40 times | superiority over kitacin in respect of activity [10]: about 50 times | Concentration causing 50% death of spores [10]: 0.69 mg/L | Percentage of plants injured with rust, 1-st evaluation ([6]; in vivo): 0.5% | Percentage of plants injured with rust, 2-nd evaluation ([6]; in vivo): 7.0% | Weight of 1,000 grains ([6]; in vivo): 18.7 g | Yield ([6]; in vivo): 17.40 c/ha

CCCCCCC(=O)OC(C(Cl)(Cl)Cl)P(=O)(Oc1ccc(-c2ccccc2)cc1)Oc1ccc(-c2ccccc2)cc1 (stereo not drawn) [XLIX]
Percentage of injury lowered [8]: 49% | LD50 for white mice (white mice; Table 2, 20160 min): > 1,000 mg/kg

CC1=C(C(=O)Nc2ccccc2)S(=O)(=O)CCO1 [Hydroxycarboxine, 1,4-dioxide-2,3-dihydro-6-methyl-5-phenylcarbamoyl-1,4-oxathiine]
efficiency under different agroclimatic conditions including frequent heavy rains [1]: low-effective | activity against rust diseases [3]: efficient in killing rust fungi | Plant injury ([11]; 1.5 kg/ha a.p.): 21.7% | Weight of 1,000 grains ([11]; 1.5 kg/ha a.p.): 12.0 g | Plant injury ([11]; 3.0 kg/ha a.p.): 16.1% | Weight of 1,000 grains ([11]; 3.0 kg/ha a.p.): 12.4 g | Yield ([11]; in vivo): 9.5 c/ha and 9.3 c/ha

CCCC(=O)OC(C(Cl)(Cl)Cl)P(=O)(Oc1cc(C)cc(C)c1)Oc1cc(C)cc(C)c1 (stereo not drawn) [XXVIII]
Percentage of injury lowered [8]: 73% | LD50 at 336 h [9, 15]: > 1000 mg/kg | Percentage of plants injured with rust, 1-st evaluation ([6]; in vivo): 0.5% | Percentage of plants injured with rust, 2-nd evaluation ([6]; in vivo): 7.0% | Weight of 1,000 grains ([6]; in vivo): 16.6 g | Yield ([6]; in vivo): 11.60 c/ha

CC(=O)OC(C(Cl)(Cl)Cl)P(=O)(Oc1cc(C)cc(C)c1)Oc1cc(C)cc(C)c1 (stereo not drawn) [XXVI]
Percentage of injury lowered [8]: 84% | LD50 at 336 h [9, 15]: > 1000 mg/kg | Percentage of plants injured with rust, 1-st evaluation ([6]; in vivo): 0.5% | Percentage of plants injured with rust, 2-nd evaluation ([6]; in vivo): 10.0% | Weight of 1,000 grains ([6]; in vivo): 16.7 g | Yield ([6]; in vivo): 11.70 c/ha

CCOP(=O)(OCC)SCc1ccccc1 [kitacin, O,O-diethyl-S-benzylthiophosphate, reference compound]
Concentration causing 50% death of spores [10]: 28.6 mg/L

CCC(=O)OC(C(Cl)(Cl)Cl)P(=O)(Oc1ccc(C)cc1)Oc1ccc(C)cc1 (stereo not drawn) [XIX]
Percentage of injury lowered [8]: 100% and 66% | LD50 at 336 h [9, 15]: > 1000 mg/kg | Percentage of plants injured with rust, 1-st evaluation ([6]; in vivo): 0.5% | Percentage of plants injured with rust, 2-nd evaluation ([6]; in vivo): 8.0% | Weight of 1,000 grains ([6]; in vivo): 18.9 g | Yield ([6]; in vivo): 14.60 c/ha

CCCCCCC(=O)OC(C(Cl)(Cl)Cl)P(=O)(Oc1ccccc1)Oc1ccccc1 (stereo not drawn) [IV]
Percentage of injury lowered [8]: 98% and 74% | LD50 at 336 h [9, 15]: > 1000 mg/kg | Percentage of plants injured with rust, 1-st evaluation ([6]; in vivo): 0.5% | Percentage of plants injured with rust, 2-nd evaluation ([6]; in vivo): 6.5% | Weight of 1,000 grains ([6]; in vivo): 23.8 g | Yield ([6]; in vivo): 20.00 c/ha

CCC(=O)OC(C(Cl)(Cl)Cl)P(=O)(Oc1cccc(C)c1)Oc1cccc(C)c1 (stereo not drawn) [XIII]
Percentage of injury lowered [8]: 98% and 85% | LD50 at 336 h [9, 15]: > 1000 mg/kg | Percentage of plants injured with rust, 1-st evaluation ([6]; in vivo): 0.5% | Percentage of plants injured with rust, 2-nd evaluation ([6]; in vivo): 10.0% | Weight of 1,000 grains ([6]; in vivo): 16.9 g | Yield ([6]; in vivo): 12.05 c/ha

Nc1ccc(S(=O)(=O)O)cc1 [anilate]
activity against rust diseases [3]: low-efficiency | phytotoxicity (plants): phytotoxic

CCC(=O)OC(C(Cl)(Cl)Cl)P(=O)(Oc1ccccc1C)Oc1ccccc1C (stereo not drawn) [VIII]
Percentage of injury lowered [8]: 96% and 76% | LD50 at 336 h [9, 15]: > 1000 mg/kg | Percentage of plants injured with rust, 1-st evaluation ([6]; in vivo): 0.5% | Percentage of plants injured with rust, 2-nd evaluation ([6]; in vivo): 8.5% | Weight of 1,000 grains ([6]; in vivo): 15.3 g | Yield ([6]; in vivo): 10.15 c/ha

CN(C)C(=S)SSC(=S)N(C)C [TMTD, tetramethylthiuramdisulphide]
sporulation on treated tubers [12]: individual conidia were observed

CC(=O)OC(C(Cl)(Cl)Cl)P(=O)(Oc1ccc(Cl)cc1)Oc1ccc(Cl)cc1 (stereo not drawn) [XXX]
Percentage of injury lowered [8]: 89% and 68% | LD50 at 336 h [9, 15]: > 1000 mg/kg | Percentage of plants injured with rust, 1-st evaluation ([6]; in vivo): 0.5% | Percentage of plants injured with rust, 2-nd evaluation ([6]; in vivo): 7.0% | Weight of 1,000 grains ([6]; in vivo): 20.9 g | Yield ([6]; in vivo): 16.70 c/ha

CCCCCCCCc1ccc(OP(=O)(Oc2ccc(CCCCCCCC)cc2)C(OC(C)=O)C(Cl)(Cl)Cl)cc1 (stereo not drawn) [XXIV]
Percentage of injury lowered [8]: 62% and 35% | LD50 at 336 h [9, 15]: > 1000 mg/kg | Percentage of plants injured with rust, 1-st evaluation ([6]; in vivo): 0.5% | Percentage of plants injured with rust, 2-nd evaluation ([6]; in vivo): 12.0% | Weight of 1,000 grains ([6]; in vivo): 13.5 g | Yield ([6]; in vivo): 8.00 c/ha
